Experimental data from patent US20250368678A1, “19-NOR-C3,3-DISUBSTITUTED C21-AZACYCLO-S[…] AND METHOD FOR USING SAME” (SHANDONG LUYE PHARMACEUTICAL CO., LTD., priority 2022, published 2025).

Legend:
[1] = In vitro liver microsomal stability assay, rat; type: in vitro ADME; conditions: for CLint scaled at 1 µM / half-life at 1 µM / microsomal CLint at 1 µM: Rat liver microsomes; for Remaining amount % at 60 min: Rat liver microsomes 0.5 mg/mL, NADPH; for microsomal CLint at 1 µM: read-out: CLint(mic)
Protocol: (§1) 1) Preparation of working solutions of test samples: The test samples were diluted with acetonitrile to 100 M.
(§2) 2) Preparation of a working solution of liver microsomes: liver microsomes were diluted with 100 mM phosphate-buffered saline to 0.56 mg/mL.
(§3) 3) Preparation of a working solution of reduced nicotinamide adenine dinucleotide (NADPH): A proper amount of NADPH was weighed out and diluted with phosphate-buffered saline to 20 mM, and an equal volume of a 60 mM MgCl2 solution was added.
(§4) 4) Preparation of a stop solution: Tolbutamide was diluted with acetonitrile to 20 ng/mL, serving as a stop solution containing an internal standard.
(§5) 1) Incubation anti-adsorption EP tubes were prepared and labeled with species, test/control sample, time points (0, 5, 10, 20, 30, 60 min, Blank60, and NCF60), etc.
(§6) 2) 2 L of test or control sample working solution, diluted with acetonitrile to 100 M, and 178 L of liver microsome working solution were added to each tube. For the Blank60 tube, 2 L of acetonitrile was added instead of a test sample. The tubes were pre-incubated in a 37° C. water bath for about 10 min, with each sample tested in triplicate.
(§7) 3) After the pre-incubation was complete, 20 L of NADPH working solution was added to each tube except for the 0 min and NCF60 tubes to start reactions, and 20 L of phosphate-buffered saline (containing 30 mM MgCl2) was added to the NCF60 tube. In the incubation system, the final concentrations of the test and control samples were 1 M, the final concentration of liver microsomes was 0.5 mg/mL, the final concentration of NADPH was 1 mM, and the final concentration of MgCl2 was 3 mM.
(§8) 4) For the 0 min sample, 600 L of stop solution was added before adding the NADPH working solution. After each sample was incubated for its respective time, 600 L of stop solution was added to stop the reaction.
(§9) 5) After the reaction was stopped, each sample was vortexed for 30 s and then centrifuged at 13,500 rpm for 10 min. 100 L of the supernatant was transferred to an EP tube, and 100 L Milli-Q water was added. The mixture was well mixed by vortexing and analyzed by LC-MS/MS.
(§10) 6) Testosterone and dextromethorphan were used as positive control samples under the same conditions to assess the stability and reliability of the system.
(§11) Parameters of the test samples, including their half-lives, intrinsic clearance rates in liver microsomes, and hepatic intrinsic clearance rates, were calculated based on the percentage of test sample remaining.

[2] = molecular target: T1, α4β3δ GABA receptors (α4β3δ-HEK-FlpIn-TRex stable cell strain) (Homo sapiens, UniProt P28472+P48169); assay: Whole-cell patch clamp, extrasynaptic functional activity (positive allosteric regulation of GABA-induced current); type: cell-based; conditions: patch clamp -60 mV, GABA at EC10-20, α4β3δ-HEK-FlpIn-TRex cells
T1 construct: expressed in transfected cells
Protocol: (§12) The α4β3δ-HEK-FlpIn-TRex stable cell strain was cultured in DMEM+10% FBS complete culture medium, with the selective antibiotics being 10 μg/mL Blasticidin, 100 µg/mL Zeocin, 100 µg/mL Hygromycin, and 0.2 μg/mL Puromycin. The α1β2γ2-CHO-TRex stable cell strain was cultured in DMEM/F12+10% FBS complete culture medium, with the selective antibiotics being 10 μg/mL Blasticidin, 100 μg/mL Zeocin, 300 μg/mL Hygromycin, and […] Puromycin.
(§13) The day before the patch clamp experiment, cells were seeded onto 12 mm polylysine-coated coverslips and then cultured in 35 mm culture dishes, and tetracycline ([…]) was added to induce the expression of GABA receptors. The extracellular fluid had the following composition (in mM): 140 NaCl, 3 KCl, 1.5 MgCl2, 2 CaCl2, 10 HEPES, and 10 Glucose. After thorough mixing, NaOH was added to adjust the pH to 7.4, and sucrose was added to adjust the osmotic pressure to 300-320 mOsm. The fluid was stored at 4° C. The electrode internal solution had the following composition (in mM): 145 KCl, 1 MgCl2, 5 EGTA, 10 HEPES, and 5 MgATP. After thorough mixing, KOH was added to adjust the pH to 7.3, and sucrose was added to adjust the osmotic pressure to 290-300 mOsm. The solution was filtered through a […] before use.
(§14) Whole-cell patch clamp recording was mainly employed in this experiment. The membrane potential was clamped at −60 mV, and receptors were activated using GABA at an EC10-20 concentration ([…]). The test compounds were dissolved in 0.1% DMSO, and perfusion was performed for 30 s prior to GABA stimulation. Finally, the positive allosteric regulating effects of the test compounds on α1β2γ2 or α4β3δ were determined.
(§15) The experimental result for each concentration was expressed as a fold increase in the GABA-induced current caused by the compound. […] At least 5 concentrations are tested to obtain a complete EC50 curve and EC50 values. All experiments were repeated on no less than 3 cells, and data processing was completed using GraphPad prism software. The dose-response curves were fitted using the Hill equation, and the half-maximal activating concentration EC50 and Emax were finally obtained.

[3] = In vitro liver microsomal stability assay, human; type: in vitro ADME; conditions: for CLint scaled at 1 µM / half-life at 1 µM / microsomal CLint at 1 µM: Human liver microsomes; for Remaining amount % at 60 min: Human liver microsomes 0.5 mg/mL, NADPH; for microsomal CLint at 1 µM: read-out: CLint(mic)
Protocol: as §1, §2, §3, §4, §5, §6, §7, §8, §9, §10, §11

[4] = molecular target: T2, α1β2γ2 GABA receptors (α1β2γ2-CHO-TRex stable cell strain) (Homo sapiens, UniProt P14867+P47870); assay: Whole-cell patch clamp, intrasynaptic functional activity (positive allosteric regulation of GABA-induced current); type: cell-based; conditions: patch clamp -60 mV, GABA at EC10-20, α1β2γ2-CHO-TRex cells
T2 construct: expressed in transfected cells
Protocol: as §12, §13, §14, §15

T1 sequence (P48169 36-554): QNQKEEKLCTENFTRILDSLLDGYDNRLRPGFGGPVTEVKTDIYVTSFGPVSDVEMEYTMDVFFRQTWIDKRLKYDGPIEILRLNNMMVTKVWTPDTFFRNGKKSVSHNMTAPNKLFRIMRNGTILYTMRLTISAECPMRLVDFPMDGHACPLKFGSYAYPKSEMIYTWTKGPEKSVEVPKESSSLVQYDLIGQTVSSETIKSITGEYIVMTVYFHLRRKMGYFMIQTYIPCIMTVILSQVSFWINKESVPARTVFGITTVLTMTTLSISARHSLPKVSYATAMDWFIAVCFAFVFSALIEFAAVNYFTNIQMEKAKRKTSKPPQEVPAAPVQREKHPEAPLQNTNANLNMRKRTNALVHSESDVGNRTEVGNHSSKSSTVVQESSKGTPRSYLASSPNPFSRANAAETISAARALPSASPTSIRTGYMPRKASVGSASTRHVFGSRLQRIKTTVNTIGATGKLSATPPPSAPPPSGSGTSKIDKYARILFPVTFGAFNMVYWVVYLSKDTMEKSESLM
T1 sequence (P28472 26-473): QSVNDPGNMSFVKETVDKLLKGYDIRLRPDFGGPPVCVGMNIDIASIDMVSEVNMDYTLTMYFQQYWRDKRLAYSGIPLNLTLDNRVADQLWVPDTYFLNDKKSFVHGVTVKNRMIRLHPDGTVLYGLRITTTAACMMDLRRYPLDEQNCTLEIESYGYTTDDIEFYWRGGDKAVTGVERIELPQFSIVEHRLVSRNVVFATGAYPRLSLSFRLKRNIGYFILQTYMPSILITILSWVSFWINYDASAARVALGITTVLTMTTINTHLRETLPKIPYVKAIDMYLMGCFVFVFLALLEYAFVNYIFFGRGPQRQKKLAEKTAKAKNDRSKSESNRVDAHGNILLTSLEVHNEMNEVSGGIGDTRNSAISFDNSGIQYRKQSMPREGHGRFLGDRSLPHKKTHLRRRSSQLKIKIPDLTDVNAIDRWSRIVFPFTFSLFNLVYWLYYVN
T1 sequence (O14764 25-452 partner): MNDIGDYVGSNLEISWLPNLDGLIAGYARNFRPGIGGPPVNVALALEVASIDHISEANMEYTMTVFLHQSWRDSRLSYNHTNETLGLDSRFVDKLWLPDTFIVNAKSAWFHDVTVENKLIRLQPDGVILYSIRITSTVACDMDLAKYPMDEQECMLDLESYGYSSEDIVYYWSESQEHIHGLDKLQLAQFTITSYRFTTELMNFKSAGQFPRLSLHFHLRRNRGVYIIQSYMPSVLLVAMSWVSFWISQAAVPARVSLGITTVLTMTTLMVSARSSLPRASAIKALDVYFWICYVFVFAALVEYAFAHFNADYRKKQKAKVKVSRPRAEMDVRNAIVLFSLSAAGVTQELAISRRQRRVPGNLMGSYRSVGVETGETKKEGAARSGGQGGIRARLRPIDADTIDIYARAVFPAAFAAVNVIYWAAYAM
T2 sequence (P14867 28-456): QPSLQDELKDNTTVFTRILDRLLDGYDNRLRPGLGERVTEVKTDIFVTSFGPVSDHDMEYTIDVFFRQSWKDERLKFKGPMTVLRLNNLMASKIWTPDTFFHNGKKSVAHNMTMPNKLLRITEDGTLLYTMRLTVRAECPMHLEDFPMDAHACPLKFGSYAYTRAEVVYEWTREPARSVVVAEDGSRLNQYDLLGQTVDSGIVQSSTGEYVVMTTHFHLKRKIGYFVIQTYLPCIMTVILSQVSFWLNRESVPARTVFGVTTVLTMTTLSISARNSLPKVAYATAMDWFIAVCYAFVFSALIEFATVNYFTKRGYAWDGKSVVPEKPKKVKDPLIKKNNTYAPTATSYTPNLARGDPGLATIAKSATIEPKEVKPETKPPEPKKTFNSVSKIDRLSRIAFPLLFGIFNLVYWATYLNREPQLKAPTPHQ
T2 sequence (P47870 25-512 limits assumed): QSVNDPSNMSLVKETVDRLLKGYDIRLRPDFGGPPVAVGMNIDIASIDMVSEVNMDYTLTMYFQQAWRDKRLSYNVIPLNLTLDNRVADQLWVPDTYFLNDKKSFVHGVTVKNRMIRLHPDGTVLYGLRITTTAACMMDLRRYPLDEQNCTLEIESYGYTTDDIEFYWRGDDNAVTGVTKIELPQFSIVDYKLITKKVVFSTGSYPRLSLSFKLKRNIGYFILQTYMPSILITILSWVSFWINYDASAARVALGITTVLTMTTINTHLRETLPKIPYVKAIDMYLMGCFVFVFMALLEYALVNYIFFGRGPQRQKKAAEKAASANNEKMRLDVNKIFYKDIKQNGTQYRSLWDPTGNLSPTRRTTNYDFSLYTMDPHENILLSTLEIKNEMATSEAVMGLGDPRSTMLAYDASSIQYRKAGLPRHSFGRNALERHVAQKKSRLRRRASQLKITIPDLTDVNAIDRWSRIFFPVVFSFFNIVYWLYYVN
T2 sequence (P18507 40-475 partner): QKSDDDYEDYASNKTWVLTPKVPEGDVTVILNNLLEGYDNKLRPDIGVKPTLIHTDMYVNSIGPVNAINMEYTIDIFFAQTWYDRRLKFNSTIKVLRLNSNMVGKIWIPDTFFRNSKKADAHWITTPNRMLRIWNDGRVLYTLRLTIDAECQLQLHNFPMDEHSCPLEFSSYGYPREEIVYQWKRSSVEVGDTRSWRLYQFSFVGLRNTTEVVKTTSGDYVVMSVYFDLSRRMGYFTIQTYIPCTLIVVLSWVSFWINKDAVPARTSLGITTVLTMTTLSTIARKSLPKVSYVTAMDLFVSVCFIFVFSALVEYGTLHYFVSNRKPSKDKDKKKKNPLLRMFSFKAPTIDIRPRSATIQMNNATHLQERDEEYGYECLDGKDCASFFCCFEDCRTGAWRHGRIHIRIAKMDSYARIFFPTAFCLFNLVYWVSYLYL

Structure (SMILES) | CLint scaled at 1 µM [1] | half-life at 1 µM [1] | Remaining amount % at 60 min [1] | microsomal CLint at 1 µM [1] | EC50 [2] | Emax [2] | CLint scaled at 1 µM [3] | half-life at 1 µM [3] | Remaining amount % at 60 min [3] | microsomal CLint at 1 µM [3] | EC50 [4] | Emax [4]
C[C@@]1(O)CC[C@H]2[C@H](CC[C@@H]3[C@@H]2CC[C@]2(C)[C@@H](C(=O)Cn4cnn(-c5ccnc(OC(F)(F)F)c5)c4=O)CC[C@@H]32)C1 [Compound 38] | 12 mL/min/kg | 210 min | 82.9% | 7 µL/min/mg | 115 nM | 625% | < 6.75 mL/min/kg | > 186 min | 97.3% | < 7.5 µL/min/mg | 55 nM | 700%
C[C@@]1(O)CC[C@H]2[C@H](CC[C@@H]3[C@@H]2CC[C@]2(C)[C@@H](C(=O)Cn4cnn(-c5cccc(N)c5)c4=O)CC[C@@H]32)C1 [Compound 22] | 146 mL/min/kg | 17.1 min | 8.9% | 81 µL/min/mg | 213 nM | – | 320 mL/min/kg | 7.8 min | 8.6% | 178 µL/min/mg | 349 nM | 786%
C[C@@]1(O)CC[C@H]2[C@H](CC[C@@H]3[C@@H]2CC[C@]2(C)[C@@H](C(=O)Cn4cnn(-c5cncc(F)c5)c4=O)CC[C@@H]32)C1 [Compound 23] | 72 mL/min/kg | 34.7 min | 31.7% | 40 µL/min/mg | 150 nM | 601% | 21 mL/min/kg | 60.3 min | 53.4% | 23 µL/min/mg | 145 nM | 618%
C[C@@]1(O)CC[C@H]2[C@H](CC[C@@H]3[C@@H]2CC[C@]2(C)[C@@H](C(=O)Cn4cnn(-c5ccc(F)cc5F)c4=O)CC[C@@H]32)C1 [Compound 25] | 104 mL/min/kg | 24.1 min | 16.2% | 58 µL/min/mg | 89 nM | 542% | 25 mL/min/kg | 49.5 min | 42% | 28 µL/min/mg | 784 nM | 692%
C[C@@]1(O)CC[C@H]2[C@H](CC[C@@H]3[C@@H]2CC[C@]2(C)[C@@H](C(=O)Cn4ccn(-c5cccc(F)c5)c4=O)CC[C@@H]32)C1 [Compound 11] | 276 mL/min/kg | 9 min | 9.24% | 153 µL/min/mg | 139 nM | 552% | 63 mL/min/kg | 19.8 min | 28.02% | 70 µL/min/mg | 241 nM | 594%
C[C@@]1(O)CC[C@H]2[C@H](CC[C@@H]3[C@@H]2CC[C@]2(C)[C@@H](C(=O)Cn4cnn(-c5cccc(F)c5F)c4=O)CC[C@@H]32)C1 [Compound 27] | 122 mL/min/kg | 20.4 min | 14.60% | 68 µL/min/mg | 42 nM | 526% | 14 mL/min/kg | 91.2 min | 64.13% | 15 µL/min/mg | 126 nM | 445%
C[C@@]1(O)CC[C@H]2[C@H](CC[C@@H]3[C@@H]2CC[C@]2(C)[C@@H](C(=O)Cn4cnn(C5CCCCC5)c4=O)CC[C@@H]32)C1 [Compound 30] | 329 mL/min/kg | 7.6 min | 7.4% | 183 µL/min/mg | 237 nM | 685% | 91 mL/min/kg | 17.5 min | 9.5% | 79 µL/min/mg | 585 nM | 873%
Cc1cc(-n2ncn(CC(=O)[C@H]3CC[C@H]4[C@@H]5CC[C@@H]6C[C@](C)(O)CC[C@@H]6[C@H]5CC[C@]34C)c2=O)cc(C)n1 [Compound 40] | – | – | – | – | – | 563% | – | – | – | – | – | 691%
C[C@@]1(O)CC[C@H]2[C@H](CC[C@@H]3[C@@H]2CC[C@]2(C)[C@@H](C(=O)Cn4cnn(C5CCCC5)c4=O)CC[C@@H]32)C1 [Compound 29] | 64 mL/min/kg | 38.7 min | 36.8% | 36 µL/min/mg | 203 nM | 830% | 60 mL/min/kg | 20.7 min | 45.8% | 67 µL/min/mg | 192 nM | 691%
COc1cccc(-n2ncn(CC(=O)[C@H]3CC[C@H]4[C@@H]5CC[C@@H]6C[C@](C)(O)CC[C@@H]6[C@H]5CC[C@]34C)c2=O)c1 [Compound 5] | 176 mL/min/kg | 14.1 min | 14.19% | 98 µL/min/mg | 21 nM | 570% | 24 mL/min/kg | 52.5 min | 43.53% | 26 µL/min/mg | 26 nM | 410%
Cn1ncn(CC(=O)[C@H]2CC[C@H]3[C@@H]4CC[C@@H]5C[C@](C)(O)CC[C@@H]5[C@H]4CC[C@]23C)c1=O [Compound 6] | 117 mL/min/kg | 21.3 min | 15.45% | 65 µL/min/mg | 305 nM | 497% | 10 mL/min/kg | 126 min | 72.92% | 11 µL/min/mg | 444 nM | 242%
C[C@@]1(O)CC[C@@]2(C)[C@@H](CC[C@@H]3[C@@H]2CC[C@]2(C)[C@@H](C(=O)Cn4cnn(-c5ccnc(F)c5)c4=O)CC[C@@H]32)C1 [Compound 42] | – | – | – | – | 143 nM | 507% | – | – | – | – | 280 nM | 736%
C[C@@]1(O)CC[C@H]2[C@H](CC[C@@H]3[C@@H]2CC[C@]2(C)[C@@H](C(=O)Cn4c(=O)n(-c5ccccc5)c5ccccc54)CC[C@@H]32)C1 [Compound 13] | – | – | – | – | – | 470% | – | – | – | – | – | 305%
C[C@@]1(O)CC[C@H]2[C@H](CC[C@@H]3[C@@H]2CC[C@]2(C)[C@@H](C(=O)Cn4cnn(-c5ccnc(C(F)F)c5)c4=O)CC[C@@H]32)C1 [Compound 37] | – | – | – | – | – | 432% | – | – | – | – | – | 600%
C[C@@]1(O)CC[C@H]2[C@H](CC[C@@H]3[C@@H]2CC[C@]2(C)[C@@H](C(=O)Cn4cnn(-c5cc(F)ccn5)c4=O)CC[C@@H]32)C1 [Compound 35] | – | – | – | – | 68 nM | 720% | – | – | – | – | 340 nM | 446%
